Measured values published in patent publication US9475839B2, “Peptide-based inhibitor of interleukin-10 or interferon-gamma signaling” (THE UNITED STATES OF AMERICA, AS REPRESENTED BY THE …, priority 2010, dated 2016).
Where two headings read alike, the source gives them in different places. Non-standard residues stand in square brackets, D forms with d. Residues, ends and D or L forms follow the SMILES beside them. *: point of attachment. C(fluorescein) = cysteine carrying a fluorescein label; Palmitoyl = CCCCCCCCCCCCCCCC(=O)*; Nle = CCCC[C@H](N)C(=O)O

How the values were obtained:
[1] = system: MDA-MB-231 breast cancer cells; experiment: Inhibition of IFN-gamma-dependent growth of MDA-MB-231 cells, MTT assay, 48 hours; type: cell-based; settings: 48 h
Method: (§1) Cells were exposed to compounds for 48 hours and cell number was determined with the help of MTT assay.
(§2) Cells were exposed to IL10-HF-1 for 48 hours and cell number was determined with the help of MTT assay.
(§3) Peptides designed to mimic conserved regions of the receptor sequences were tested for the ability to inhibit IL10 and IFN-gamma signaling. Inhibition of IL10 signaling was tested in a mouse mast cell line MC/9. […] Abrogation of IFN-gamma signaling or STAT1 activation causes cell death in this cell line.

mouse mast MC/9 cells = experiment: Inhibition of IL10-dependent growth of MC/9 cells, MTT assay, 48 hours; type: cell-based
Method: as §1, §2, §3

[2] = target: T1, recombinant human IFN-gamma (Homo sapiens, UniProt P01579); experiment: Microscale thermophoresis binding to IFN-gamma; settings: result in words
T1 sequence (P01579 24-161 limits assumed): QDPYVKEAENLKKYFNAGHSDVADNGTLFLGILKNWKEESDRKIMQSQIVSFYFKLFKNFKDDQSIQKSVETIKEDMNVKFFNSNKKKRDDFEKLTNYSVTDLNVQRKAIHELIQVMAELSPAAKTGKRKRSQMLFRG
Text: To evaluate whether synthetic helix F analogs could interact with the corresponding cytokine, fluorescent derivatives of helix F were synthesized. The helix F analogs are described below.

Row | GI50 [1] | Compound | GI50 (mouse mast MC/9 cells; 48 h) | further results
1 | 2.5 µM | CCCCCCCCCCCCCCCC(=O)NCCCC[C@H](N)C(=O)N[C@@H](CCCCN)C(=O)N[C@@H](CC(C)C)C(=O)N1CCC[C@H]1C(=O)N[C@@H](CO)C(=O)N[C@H](C(=O)N[C@@H](CC(C)C)C(=O)N[C@@H](CC(C)C)C(=O)N[C@@H](Cc1ccccc1)C(=O)N[C@@H](CCCCN)C(=O)N[C@@H](CCCCN)C(=O)N1CCC[C@H]1C(=O)N[C@@H](CO)C(N)=O)C(C)C [IL10R1-3, ε-Pal-KKLPSVLLFKKPS-NH2] (H-K(Palmitoyl)KLPSVLLFKKPS-NH2; N-terminus assumed) | 0.05 µM | 
2 |  | Ac-C(Fluo)VQRKAIHELIQVx^13AELSPAAKT-NH2 ({Ac-C(fluorescein)}-VQRKAIHELIQV[Nle]AELSPAAKT-NH2) [IFNG-HF-6] |  | Affinity for IFN-gamma [2]: unexpectedly high affinity
3 |  | CCCCCCCCCCCCCCCC(=O)N[C@@H](CC(C)C)C(=O)N[C@@H](Cc1c[nH]cn1)C(=O)NCC(=O)N[C@@H](CO)C(=O)N[C@H](C(=O)N[C@@H](CC(=O)O)C(=O)N[C@@H](CO)C(=O)NCC(=O)N[C@@H](Cc1ccccc1)C(=O)NCC(=O)N[C@@H](CO)C(=O)N[C@H](C(=O)N[C@@H](CCCCN)C(=O)N1CCC[C@H]1C(=O)N[C@@H](CO)C(=O)N[C@@H](CC(C)C)C(=O)N[C@@H](CCC(N)=O)C(=O)N[C@H](C(=O)O)[C@@H](C)O)[C@@H](C)O)[C@@H](C)O [IL10R1-5, Pal-LHGSTDSGFGSTKPSLQT] (Palmitoyl-LHGSTDSGFGSTKPSLQT-OH; N-terminus and C-terminus assumed) | 1 µM | 
4 |  | CCCCCCCCCCCCCCCC(=O)NCCCC[C@H](N)C(=O)N1CCC[C@H]1C(=O)N1CCC[C@H]1C(=O)N[C@@H](C)C(=O)N[C@@H](CC(C)C)C(=O)N[C@@H](C)C(=O)N[C@@H](CCCCN)C(=O)NCC(=O)N[C@@H](Cc1ccc(O)cc1)C(=O)N[C@@H](CC(C)C)C(=O)N[C@@H](CCCCN)C(=O)N[C@@H](CCC(N)=O)C(N)=O [IL10R1-8, ε-Pal-KPPALAKGYLKQ-NH2] (H-K(Palmitoyl)PPALAKGYLKQ-NH2; N-terminus assumed) | 5 µM | 
5 | 0.025 µM | CCCCCCCCCCCCCCCC(=O)N[C@@H](CC(C)C)C(=O)N[C@@H](Cc1ccc(O)cc1)C(=O)N[C@H](C(=O)N[C@@H](CCCNC(=N)N)C(=O)N[C@@H](CCCNC(=N)N)C(=O)N[C@@H](CCCNC(=N)N)C(=O)N[C@@H](CCCCN)C(=O)N[C@@H](CCCCN)C(=O)N[C@@H](CC(C)C)C(=O)N1CCC[C@H]1C(=O)N[C@@H](CO)C(=O)N[C@H](C(=O)N[C@@H](CC(C)C)C(=O)N[C@@H](CC(C)C)C(=O)N[C@@H](Cc1ccccc1)C(=O)N[C@@H](CCCCN)C(=O)N[C@@H](CCCCN)C(N)=O)C(C)C)C(C)C [IL10R1-1, Pal-LYVRRRKKLPSVLLFKK-NH2] (Palmitoyl-LYVRRRKKLPSVLLFKK-NH2) | 1 µM | 
6 |  | CCCCCCCCCCCCCCCC(=O)NCCCC[C@@H](NC(=O)[C@@H](CC(C)C)NC(=O)[C@@H](Cc1c[nH]cn1)NC(=O)CNC(=O)[C@@H](CO)NC(=O)[C@H](NC(=O)[C@@H](CC(=O)O)NC(=O)[C@@H](CO)NC(=O)CNC(=O)[C@@H](Cc1ccccc1)NC(=O)CNC(=O)[C@@H](CO)NC(=O)[C@H](NC(=O)[C@@H](CCCCN)NC(=O)[C@H]1CCCN1C(=O)[C@@H](CO)NC(=O)[C@@H](CC(C)C)NC(=O)[C@@H](CCC(N)=O)NC(=O)[C@H](NC(=O)[C@@H](CCC(=O)O)NC(C)=O)[C@H](C)O)[C@H](C)O)[C@H](C)O)C(N)=O [IL10R1-15] (Ac-[dE][dT][dQ][dL][dS][dP][dK][dT][dS]G[dF]G[dS][dD][dT][dS]G[dH][dL][dK](Palmitoyl)-NH2; C-terminus assumed) |  | GI50 (mouse mast MC/9 cells; Table 4, compounds mimicking conserved regions of IL10R1, cell line not given, read-out: GI50): > 5 µM
